# Measured values reported in ChEMBL document CHEMBL1201862, “PubChem BioAssay data set” (2004).
# Calls of active or inactive are those of the source.
# Tests used:
# [1] = MC4R antagonists, dose response, counter-screen for LGR2 antagonist project, cell-based, plate reader, cherry pick (AID 743444); assay type: functional;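 note: transfected HEK 293 cells stimulated with alpha-MSH peptide; potency of inhibitors of the alpha-MSH evoked signal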
# [2] = A549 cell cytotoxicity, dose response, cytotoxicity control, plate reader, cherry-pick, antagonist series (AID 743412); assay type: functional, cell-based
# [3] = P. falciparum Dd2 growth inhibitors, dose response, SYBR Green, cherry-picked samples (AID 1159567); assay type: functional, cell-based
# [4] = IGROV1 ovarian cancer cell cytotoxicity, dose response, PAX8 inhibitor project, plate reader, dry powder samples (AID 743043); assay type: functional, cell-based; settings: IGROV-1
# [5] = P. falciparum Dd2 growth inhibitors, dose response, SYBR Green, dry powder samples, set 9 (AID 1159568); assay type: functional, cell-based
# [6] = P. falciparum ATP4 D1247Y mutant growth inhibitors, dose response, NITD609-resistant line, SYBR Green, dry powder (AID 1159571); assay type: functional, cell-based;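 note: parasites synchronized at ring stage by sorbitol before testing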
# [7] = HEK293 cell cytotoxicity, dose response, cytotoxicity control, plate reader, cherry-picked samples (AID 743446); assay type: functional, cell-based
# [8] = P. falciparum Dd2 growth inhibitors, dose response, SYBR Green, dry powder samples (AID 1159566); assay type: functional, cell-based;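 note: potency for growth inhibition with lower SYBR green DNA signal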
# Paired box protein Pax-8 = Paired box protein Pax-8 (Homo sapiens, UniProt Q06710); assay: inhibitors of PAX8-driven TPO luciferase reporter, dose response, RMG-I cells, cherry-pick (AID 687027); assay type: functional, cell-based;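 note: luciferase reporter driven by Pax8 target thyroperoxidase promoter measured by SteadyGlo luminescence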
# [9] = NIH:OVCAR-3 ovarian cancer cell cytotoxicity, dose response, PAX8 inhibitor project, plate reader, dry powder samples (AID 743044); assay type: functional, cell-based
# [10] = cytotoxicity in OVCAR8 ovarian cancer cells, dose response, PAX8 project, cell-based, plate reader, dry powder samples (AID 743197); assay type: functional; settings: OVCAR-8
# [11] = IOSE-T80 ovarian epithelial cell cytotoxicity, dose response, cytotoxicity control for PAX8 inhibitor project, plate reader, dry powder samples (AID 743045); assay type: functional, cell-based
# [12] = LGR2 antagonists, dose response, cell-based, HEK293, CRE-luciferase reporter, cherry pick, set 2 (AID 743343); assay type: functional;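 note: transfected cells were stimulated with diluted bursicon conditioned medium after compound addition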
# [13] = P. falciparum 3D7-ScDHODH growth inhibitors, dose response, SYBR Green, dry powder samples (AID 1159570); assay type: functional, cell-based;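 note: parasite growth measured after 72 hours of compound exposure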
# [14] = A2780 ovarian cancer cell cytotoxicity, dose response, cytotoxicity control, plate reader, dry powder samples (AID 743046); assay type: functional, cell-based
# [15] = HepG2 cell cytotoxicity, dose response, cytotoxicity control, plate reader, cherry-pick, antagonist series (AID 743416); assay type: functional, cell-based
# [16] = HepG2 cell cytotoxicity, dose response, cytotoxicity control, plate reader, dry powder samples (AID 1159569); assay type: functional, cell-based;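 note: inhibitor potency with signal falling toward the positive control level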
# [17] = Late-stage results from the probe development effort to identify antagonists of arginine vasopressin receptor 1a (AVPR1a): fluorescence-based cell-based dose response AVPR1a inhibition assay.; assay type: functional
# Vasopressin V2 receptor = Vasopressin V2 receptor (Homo sapiens, UniProt P30518); assay: Late-stage results from the probe development effort to identify antagonists of arginine vasopressin receptor 1a (AVPR1a): fluorescence-based cell-based dose response AVPR2 inhibition counterscreen assay.; assay type: functional
# [18] = Late-stage results from the probe development effort to identify antagonists of arginine vasopressin receptor 1a (AVPR1a): fluorescence-based cell-based dose response OXTR inhibition counterscreen assay.; assay type: functional
# Vasopressin V1b receptor = Vasopressin V1b receptor (Homo sapiens, UniProt P47901); assay: Late-stage results from the probe development effort to identify antagonists of arginine vasopressin receptor 1a (AVPR1a): fluorescence-based cell-based dose response AVPR1b inhibition counterscreen assay.; assay type: functional
# [19] = HepG2 cell cytotoxicity, dose response, cytotoxicity control, ATP luminescence, dry powder, Set4 (AID 743143); assay type: functional, cell-based
# [20] = A375 melanoma cell viability loss, dose response, counter-screen for MITF modulator project, CellTiter-Glo luminescence, dry powder, set 9 (AID 651591); assay type: functional, cell-based; settings: A-375
# [21] = A375 melanoma cell cytotoxicity, dose response, counter-screen for MITF inhibitor project, CellTiter-Glo luminescence, dry powder, set 6 (AID 624488); assay type: functional, cell-based; settings: A-375
# [22] = A375 melanoma cell cytotoxicity, dose response, counter-screen for MITF inhibitor project, CellTiter-Glo luminescence, dry powder, set 7 (AID 624490); assay type: functional, cell-based; settings: A-375
# [23] = MITF Orthogonal Assay: MALME3 CTG Assay Measured in Cell-Based System Using Plate Reader - 2084-04_Inhibitor_Dose_DryPowder_Activity_Set6.; assay type: functional; settings: MALME-3
# [24] = SK-MEL-5 parental line viability, dose response, MITF inhibitor project, cell-based, CellTiter-Glo, dry powder, set 6 (AID 624429); assay type: functional
# [25] = MALME3 melanoma cell viability reduction, dose response, orthogonal assay for MITF inhibitor project, CellTiter-Glo luminescence, dry powder, set 5 (AID 651584); assay type: functional, cell-based; settings: MALME-3
# [26] = MITF Measured in Cell-Based System Using Plate Reader - 2084-01_Inhibitor_Dose_DryPowder_Activity_Set6.; assay type: functional
# [27] = A375 melanoma cell cytotoxicity, dose response, counter-screen for MITF inhibitor project, CellTiter-Glo luminescence, dry powder, set 2 (AID 624489); assay type: functional, cell-based; settings: A-375;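 note: actives are compounds lowering A375 viability meaning general cytotoxicity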
# [28] = SK-MEL-5 parental cell viability reduction, dose response, orthogonal assay for MITF inhibitor project, CellTiter-Glo luminescence, dry powder, set 8 (AID 651586); assay type: functional, cell-based
# [29] = TRPM1 promoter luciferase reporter signal decrease, dose response, MITF inhibitor project, cell-based, SK-MEL-5, dry powder, set 9 (AID 651588); assay type: functional
# [30] = A375 melanoma cell viability loss, dose response, counter-screen for MITF inhibitor project, CellTiter-Glo luminescence, dry powder, set 4 (AID 624364); assay type: functional, cell-based; settings: A-375;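 note: A375 melanoma cells are MITF independent so this is a counter screen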
# [31] = MITF Measured in Cell-Based System Using Plate Reader - 2084-01_Inhibitor_Dose_DryPowder_Activity_Set7.; assay type: functional
# [32] = MITF Orthogonal Assay: SK-MEL-5 CTG Assay Measured in Cell-Based System Using Plate Reader - 2084-02_Inhibitor_Dose_DryPowder_Activity_Set5.; assay type: functional
# NADPH oxidase 1 [33] = target: T1, NADPH oxidase 1 (Homo sapiens, UniProt Q9Y5S8); assay: NOX1 inhibitors, concentration-response, dose response, cell-based, luminescence, cherry picks 2 (AID 434997); assay type: functional
# T1 sequence (Q9Y5S8 whole entry): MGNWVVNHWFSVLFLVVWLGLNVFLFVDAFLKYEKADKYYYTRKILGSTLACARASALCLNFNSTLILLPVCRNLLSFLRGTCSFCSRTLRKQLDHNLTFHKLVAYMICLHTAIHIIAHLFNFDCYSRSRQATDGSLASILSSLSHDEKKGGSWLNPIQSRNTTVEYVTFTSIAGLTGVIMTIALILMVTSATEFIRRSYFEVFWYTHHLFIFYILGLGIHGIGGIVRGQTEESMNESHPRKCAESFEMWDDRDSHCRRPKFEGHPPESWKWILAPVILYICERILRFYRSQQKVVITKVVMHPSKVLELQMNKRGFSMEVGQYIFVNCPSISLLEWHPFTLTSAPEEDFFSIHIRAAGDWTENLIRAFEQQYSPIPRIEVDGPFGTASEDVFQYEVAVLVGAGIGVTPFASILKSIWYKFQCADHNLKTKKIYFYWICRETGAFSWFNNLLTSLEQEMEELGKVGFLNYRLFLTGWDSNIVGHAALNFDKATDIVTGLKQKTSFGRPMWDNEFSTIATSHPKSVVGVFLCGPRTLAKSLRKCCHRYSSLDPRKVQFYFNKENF
# NADPH oxidase 1 [34] = target: T1, NADPH oxidase 1; assay: Late stage results from the probe development effort to identify inhibitors of NOX1: HEK/293 IC50. [Related pubchem assays: 1796 (Summary AID (NOX1)), 2752 (Primary screen (NOX1 inhibitors, synthesized analogs set 2)), 2664 (Primary screen (NOX1 inhibitors, synthesized analogs)), 1792 (Primary Screen (NOX1)), 2545 (Confirmation screen (NOX1 …; assay type: functional
# [35] = cytotoxicity toward HT-29 cells – cell-based, CellTiter-Glo luminescence, IC50, dose response (AID 1117330); assay type: functional
# [36] = HCT116 cell viability decrease, GSK3B pretreatment – CellTiter-Glo, IC50, dose response (AID 1117339); assay type: functional; settings: HCT-116
# P388/ADR = assay: cells; assay type: functional; settings: Mus musculus
# [37] = HeLa 4N DNA content increase, dose response, cell-based, IC50 (AID 1117351); assay type: functional
# [38] = RKO cell viability reduction, dose response, CellTiter-Glo luminescence (AID 1117322); assay type: functional
# P388 = assay: cells; assay type: functional; settings: Mus musculus
# [39] = microbe, parasite or virus in culture; assay type: functional; settings: Mycobacterium tuberculosis
# SN12K1 = assay: cells; assay type: functional; settings: Homo sapiens
# [40] = HeLa 2N DNA content increase, dose response, cell-based, IC50 (AID 1117349); assay type: functional
# [41] = Dose-response inhibition of insulin secretion in a rat insulinoma line at 5 mM glucose (AID 1117331); assay type: functional, cell-based; settings: INS-1E
# Paired box protein Pax-8, sequence (Q06710 whole entry): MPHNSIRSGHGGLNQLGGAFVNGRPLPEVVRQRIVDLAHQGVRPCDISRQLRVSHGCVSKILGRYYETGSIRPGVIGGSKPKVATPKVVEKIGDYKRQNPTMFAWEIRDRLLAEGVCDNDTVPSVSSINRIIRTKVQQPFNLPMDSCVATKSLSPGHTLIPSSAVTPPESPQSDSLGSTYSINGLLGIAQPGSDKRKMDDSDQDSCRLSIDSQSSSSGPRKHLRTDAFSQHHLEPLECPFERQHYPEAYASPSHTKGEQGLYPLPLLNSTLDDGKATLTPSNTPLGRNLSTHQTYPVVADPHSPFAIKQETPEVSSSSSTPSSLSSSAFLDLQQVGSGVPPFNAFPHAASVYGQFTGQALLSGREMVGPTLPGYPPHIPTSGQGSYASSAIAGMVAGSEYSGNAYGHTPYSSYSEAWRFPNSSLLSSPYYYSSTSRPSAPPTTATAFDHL
# Vasopressin V1b receptor, sequence (P47901 whole entry): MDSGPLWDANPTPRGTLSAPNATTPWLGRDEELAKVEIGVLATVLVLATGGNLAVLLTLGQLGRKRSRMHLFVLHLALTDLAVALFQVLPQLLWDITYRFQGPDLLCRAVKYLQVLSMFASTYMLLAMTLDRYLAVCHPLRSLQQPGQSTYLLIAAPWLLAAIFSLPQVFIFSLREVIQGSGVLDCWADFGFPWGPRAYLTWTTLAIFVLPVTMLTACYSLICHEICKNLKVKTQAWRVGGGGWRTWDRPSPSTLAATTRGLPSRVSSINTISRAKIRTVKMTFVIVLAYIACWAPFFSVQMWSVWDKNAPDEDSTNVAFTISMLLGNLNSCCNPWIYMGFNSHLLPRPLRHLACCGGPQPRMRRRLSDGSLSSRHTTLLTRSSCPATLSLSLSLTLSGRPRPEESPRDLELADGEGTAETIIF
# Vasopressin V2 receptor, sequence (P30518 whole entry): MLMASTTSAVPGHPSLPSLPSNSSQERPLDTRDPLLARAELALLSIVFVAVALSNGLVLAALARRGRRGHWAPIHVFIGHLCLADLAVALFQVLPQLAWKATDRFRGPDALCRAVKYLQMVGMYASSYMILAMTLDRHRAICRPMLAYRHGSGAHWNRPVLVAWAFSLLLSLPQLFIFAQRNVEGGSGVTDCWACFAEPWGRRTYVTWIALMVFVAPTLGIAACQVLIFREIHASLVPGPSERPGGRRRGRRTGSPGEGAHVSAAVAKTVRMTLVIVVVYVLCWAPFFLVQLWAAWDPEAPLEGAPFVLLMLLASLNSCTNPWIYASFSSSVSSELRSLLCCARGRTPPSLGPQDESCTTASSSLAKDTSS
compound,measurement,setting,value
O=C(C1CC1)N1C[C@@H]2N[C@H](C1)[C@@H]2c1ccc(-c2ccccc2F)cc1,AC50,[1],2.57 µM (active)
same,AC50,[2],1.84 µM (active)
same,AC50,[3],584 nM (active)
same,AC50,[4],4.13 µM (active)
same,AC50,[5],830 nM (active)
same,AC50,[6],225 nM (active)
same,AC50,[7],4.12 µM (active)
same,AC50,[8],145 nM (active)
same,AC50,Paired box protein Pax-8,1.2 µM (active)
same,AC50,[9],5.96 µM (active)
same,AC50,[10],2.72 µM (active)
same,AC50,[11],3.24 µM (active)
same,AC50,[12],2.25 µM (active)
same,AC50,[13],139 nM (active)
same,AC50,[14],5.34 µM (active)
same,AC50,[15],4.58 µM (active)
same,AC50,[16],32.3 µM (active)
COc1ccc(N(CC2CC2)C(=O)N2CCN(c3ncc(Cl)cc3Cl)CC2)cc1,IC50,[17],16.6 nM (active)
same,IC50,Vasopressin V2 receptor,2.78 µM (active)
same,IC50,[18],100 nM (active)
same,IC50,Vasopressin V1b receptor,3.1 µM (active)
O=C(CNC(=O)c1ccc(Cl)c(Cl)c1)N[C@@H]1CCCc2ccccc21,AC50,[19],> 52 µM (inactive)
NC1=C(NC(=O)c2ccccc2)C(=O)c2ccccc2C1=O,AC50,[20],> 70 µM (inactive)
same,AC50,[21],60.3 µM (active)
same,AC50,[22],> 70 µM (inactive)
same,AC50,[23],14.3 µM (active)
same,AC50,[24],9.56 µM (active)
same,AC50,[25],14.3 µM (active)
same,AC50,[26],4.07 µM (active)
same,AC50,[27],59.8 µM (active)
same,AC50,[28],10.1 µM (active)
same,AC50,[29],18.6 µM (active)
same,AC50,[30],> 70 µM (inactive)
same,AC50,[31],7.02 µM (active)
same,AC50,[32],6.7 µM (active)
COc1cc(-c2nc(-c3ccccc3)c(-c3ccccc3)[nH]2)ccc1O,IC50,NADPH oxidase 1 [33],370 nM (active)
same,IC50,NADPH oxidase 1 [34],1.81 µM (active)
CO[C@@]12[C@H](COC(N)=O)C3=C(C(=O)C(C)=C(N)C3=O)N1C[C@@H]1N[C@@H]12 [MITOMYCIN],IC50,[35],2.57 µM (active)
same,IC50,[36],> 20 µM (inactive)
same,GI50,P388/ADR,1.39 µM (inactive)
same,IC50,[37],> 10 µM (inactive)
same,IC50,[38],995 nM (active)
same,GI50,P388,181 nM (active)
same,CC50,[39],> 40 µM (active)
same,GI50,SN12K1,959 nM (active)
same,IC50,[40],13.3 nM (active)
COCCCOc1ccnc(C[S+]([O-])c2nc3ccccc3[nH]2)c1C (configuration not stated) [RABEPRAZOLE SODIUM],IC50,[41],> 33.3 µM (inactive)
